# Results: patent US9284333B2, “Fused pyrroledicarboxamides and their use as pharmaceuticals” (SANOFI, priority 2012, dated 2016)
# Target: Human TASK-1 channels (Homo sapiens (Human), UniProt O14649)
# Experiment: Determination of the activity on the TASK-1 channel in Xenopus oocytes (two-microelectrode voltage clamp)
# Type: cell-based
# Conditions: compound concentration 5 μM
# Description: Determination of the activity on the TASK-1 channel in Xenopus oocytes
# Human TASK-1 channels were expressed in Xenopus oocytes. For this purpose, oocytes were isolated from Xenopus laevis and defoliculated. Subsequently, TASK-1-encoding RNA synthesized in vitro was injected into the oocytes. After two days of TASK-1 protein expression, TASK-1 currents were measured by two-microelectrode voltage clamp. Data were acquired and analyzed using a TEC-10cx amplifier (NPI Electronic, Tamm, Germany) connected to an ITC-16 interface (Instrutech Corp., Long Island, USA) and Pulse software (HEKA Elektronik, Lambrecht, Germany). Oocytes were clamped to −90 mV and TASK-1 mediated currents were measured during 500 ms voltage pulses to 40 mV. Oocytes were continuously superfused with ND96 buffer containing 96 mM sodium chloride, 2 mM potassium chloride, 1.8 mM calcium chloride, 1 mM magnesium chloride, 5 mM 4-(2-hydroxyethyl)-piperazine-1-ethanesulfonic acid (HEPES; pH adjusted to 7.4 with sodium hydroxide). All experiments were performed at room temperature. Test compounds were consecutively added to the bath solution at rising concentrations. Compound effects were calculated as the percentage inhibition of TASK-1 control current before compound addition. IC50 values were obtained by fitting the data to the general dose-response equation.
# Human TASK-1 channels, sequence (O14649 whole entry): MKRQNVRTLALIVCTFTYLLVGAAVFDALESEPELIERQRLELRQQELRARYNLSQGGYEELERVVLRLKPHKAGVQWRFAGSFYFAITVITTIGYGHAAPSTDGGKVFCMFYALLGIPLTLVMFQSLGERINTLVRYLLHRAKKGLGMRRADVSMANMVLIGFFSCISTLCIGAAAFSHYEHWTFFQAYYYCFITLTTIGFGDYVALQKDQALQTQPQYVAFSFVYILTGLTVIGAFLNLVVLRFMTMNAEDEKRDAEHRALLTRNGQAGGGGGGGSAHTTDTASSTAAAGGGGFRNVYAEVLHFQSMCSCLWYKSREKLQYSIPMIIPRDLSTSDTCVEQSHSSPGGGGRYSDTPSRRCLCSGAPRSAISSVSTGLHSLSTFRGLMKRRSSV
row,SMILES,inhibition at 5 µM [%]
1,"CC[C@H](NC(=O)c1cc(C(=O)N[C@H](CC)c2ccc(C(F)(F)F)nc2)c2n1CCOC2)c1ccccc1 [16kf, 3,4-Dihydro-1H-pyrrolo[2,1-c][1,4]oxazine-6,8-dicarboxylic acid 6-[((S)-1-phenyl-propyl)-amide] 8-{[(R)-1-(6-trifluoromethyl-pyridin-3-yl)-propyl]-amide}]",90
2,"CC(C)[C@@H](NC(=O)c1cc(C(=O)N2CCC[C@@H]2C)c2n1CCOC2)c1ccc(C#N)nc1 [16nm, 8-((S)-2-Methyl-pyrrolidine-1-carbonyl)-3,4-dihydro-1H-pyrrolo[2,1-c][1,4]oxazine-6-carboxylic acid [(R)-1-(6-cyano-pyridin-3-yl)-2-methyl-propyl]-amide]",77
3,"CC[C@@H](NC(=O)c1cc(C(=O)Nc2cncc(F)c2)n2c1CCCC2)c1ccccc1 [16ne, 5,6,7,8-Tetrahydro-indolizine-1,3-dicarboxylic acid 3-[(5-fluoro-pyridin-3-yl)-amide] 1-[((R)-1-phenyl-propyl)-amide]]",83

# Same assay, conditions: human TASK-1 expressed in Xenopus oocytes, room temperature; read-out: IC50 value for TASK-1 inhibition
row,SMILES,IC50 [µM]
1,"CC[C@@H](NC(=O)c1cc(C(=O)NCC2CC2)n2c1COCC2)c1ccccc1 [16gc, 3,4-Dihydro-1H-pyrrolo[2,1-c][1,4]oxazine-6,8-dicarboxylic acid 6-cyclopropylmethyl-amide 8-[((R)-1-phenyl-propyl)-amide]]",0.1
2,"CC[C@@H](NC(=O)c1cc(C(=O)N2CCC[C@@H]2C)n2c1COCC2)c1ccc(F)cc1Cl [16u, 6-((S)-2-Methyl-pyrrolidine-1-carbonyl)-3,4-dihydro-1H-pyrrolo[2,1-c][1,4]oxazine-8-carboxylic acid [(R)-1-(2-chloro-4-fluoro-phenyl)-propyl]-amide]",0.049
3,"CC[C@@H](NC(=O)c1cc(C(=O)NCc2nnn(C)n2)n2c1COCC2)c1ccccc1 [16rs, 3,4-Dihydro-1H-pyrrolo[2,1-c][1,4]oxazine-6,8-dicarboxylic acid 6-[(2-methyl-2H-tetrazol-5-ylmethyl)-amide] 8-[((R)-1-phenyl-propyl)-amide]]",2.5
4,"CC[C@@H](NC(=O)c1cc(C(=O)N[C@H](CC)c2ccccc2)n2c1CCCC2)c1ccccc1 [16ma, 5,6,7,8-Tetrahydro-indolizine-1,3-dicarboxylic acid bis-[((R)-1-phenyl-propyl)-amide]]",0.051
5,"CC[C@@H](NC(=O)c1cc(C(=O)NC(C)c2cnccn2)n2c1COCC2)c1ccccc1 (stereo partly drawn) [16hl, 3,4-Dihydro-1H-pyrrolo[2,1-c][1,4]oxazine-6,8-dicarboxylic acid 8-[((R)-1-phenyl-propyl)-amide] 6-[(1-pyrazin-2-yl-ethyl)-amide]]",0.17
6,"CCC(NC(=O)c1cc(C(=O)N[C@H](CC)c2ccccc2)c2n1CCOC2)c1cnc(OC)nc1 (single isomer, unassigned) [16hu]",0.62
7,"CC[C@H](NC(=O)c1cc(C(=O)N2CCC[C@@H]2C)n2c1COCC2)c1ccc(C(F)(F)F)nc1 [16bj, 6-((S)-2-Methyl-pyrrolidine-1-carbonyl)-3,4-dihydro-1H-pyrrolo[2,1-c][1,4]oxazine-8-carboxylic acid [(S)-1-(6-trifluoromethyl-pyridin-3-yl)-propyl]-amide]",4.1
8,"CC[C@@H](NC(=O)c1cc(C(=O)NCc2cccc(C#N)c2)n2c1COCC2)c1ccccc1 [16gs, 3,4-Dihydro-1H-pyrrolo[2,1-c][1,4]oxazine-6,8-dicarboxylic acid 6-(3-cyano-benzylamide) 8-[((R)-1-phenyl-propyl)-amide]]",0.25
9,"CC[C@@H](NC(=O)c1cc(C(=O)N2CCC[C@@H]2C(C)OC)n2c1COCC2)c1ccccc1 (stereo partly drawn) [16ez, 6-[(R)-2-(1-Methoxy-ethyl)-pyrrolidine-1-carbonyl]-3,4-dihydro-1H-pyrrolo[2,1-c][1,4]oxazine-8-carboxylic acid ((R)-1-phenyl-propyl)-amide]",0.5
10,"CC[C@@H](NC(=O)c1cc(C(=O)N2CCC[C@@H]2C)n2c1COCC2)c1cc(F)ccc1Cl [16w, 6-((S)-2-Methyl-pyrrolidine-1-carbonyl)-3,4-dihydro-1H-pyrrolo[2,1-c][1,4]oxazine-8-carboxylic acid [(R)-1-(2-chloro-5-fluoro-phenyl)-propyl]-amide]",0.04
11,"CC(NC(=O)c1cc(C(=O)N[C@H](C)c2ccc(F)cc2)n2c1CCCC2)c1ncccn1 (stereo partly drawn) [16lu, 5,6,7,8-Tetrahydro-indolizine-1,3-dicarboxylic acid 3-{[(R)-1-(4-fluoro-phenyl)-ethyl]-amide} 1-[(1-pyrimidin-2-yl-ethyl)-amide]]",0.45
12,"CC[C@@H](NC(=O)c1cc(C(=O)N2CCC[C@@H]2C)n2c1COCC2)c1ccccc1Cl [16q, 6-((S)-2-Methyl-pyrrolidine-1-carbonyl)-3,4-dihydro-1H-pyrrolo[2,1-c][1,4]oxazine-8-carboxylic acid [(R)-1-(2-chloro-phenyl)-propyl]-amide]",0.064
13,"CC[C@@H](NC(=O)c1cc(C(=O)N2CCC[C@@H]2CC(=O)OC(C)C)n2c1COCC2)c1ccccc1 [16fo, {(R)-1-[8-((R)-1-Phenyl-propylcarbamoyl)-3,4-dihydro-1H-pyrrolo[2,1-c][1,4]oxazine-6-carbonyl]-pyrrolidin-2-yl}-acetic acid isopropyl ester]",0.23
14,"CC[C@@H](NC(=O)c1cc(C(=O)N2CCC[C@@H]2C)n2c1COCC2)c1ccc(C(F)(F)F)c(Cl)c1 [16c, 6-((S)-2-Methyl-pyrrolidine-1-carbonyl)-3,4-dihydro-1H-pyrrolo[2,1-c][1,4]oxazine-8-carboxylic acid [(R)-1-(3-chloro-4-trifluoromethyl-phenyl)-propyl]-amide]",0.013
15,CC[C@@H](NC(=O)c1cc(C(=O)N(C)[C@@H](C)C(=O)NC(C)C)n2c1COCC2)c1ccccc1 [16rl],4.5
16,"CC[C@@H](NC(=O)c1cc(C(=O)N2CCCC2c2c(C)noc2C)n2c1COCC2)c1ccccc1 (stereo partly drawn) [16er, 6-[2-(3,5-Dimethyl-isoxazol-4-yl)-pyrrolidine-1-carbonyl]-3,4-dihydro-1H-pyrrolo[2,1-c][1,4]oxazine-8-carboxylic acid ((R)-1-phenyl-propyl)-amide]",0.32
17,"CC[C@@H](NC(=O)c1cc(C(=O)N[C@@H](C)c2ccc(F)cc2)n2c1COCC2)c1ccccc1 [16ht, 3,4-Dihydro-1H-pyrrolo[2,1-c][1,4]oxazine-6,8-dicarboxylic acid 6-{[(S)-1-(4-fluoro-phenyl)-ethyl]-amide} 8-[((R)-1-phenyl-propyl)-amide]]",0.07
18,"CC[C@@H](NC(=O)c1cc(C(=O)N2CCC[C@@H]2c2ccccc2)n2c1CCCC2)c1ccccc1 [16mm, 3-((R)-2-Phenyl-pyrrolidine-1-carbonyl)-5,6,7,8-tetrahydro-indolizine-1-carboxylic acid ((R)-1-phenyl-propyl)-amide]",0.12
19,"CC[C@@H](NC(=O)c1cc(C(=O)N[C@H](C)c2ccc(F)cc2)n2c1COCC2)c1ccc(C(F)(F)F)cn1 [16eg, 3,4-Dihydro-1H-pyrrolo[2,1-c][1,4]oxazine-6,8-dicarboxylic acid 6-{[(R)-1-(4-fluoro-phenyl)-ethyl]-amide} 8-{[(R)-1-(5-trifluoromethyl-pyridin-2-yl)-propyl]-amide}]",0.054
20,"CC[C@@H](NC(=O)c1cc(C(=O)N2CCC[C@@H]2C)n2c1COCC2)c1ccc(F)c(C#N)c1 [16gq, 6-((S)-2-Methyl-pyrrolidine-1-carbonyl)-3,4-dihydro-1H-pyrrolo[2,1-c][1,4]oxazine-8-carboxylic acid [(R)-1-(3-cyano-4-fluoro-phenyl)-propyl]-amide]",0.49
21,"CC[C@@H](NC(=O)c1cc(C(=O)N[C@H](C)c2ccc(F)cc2)n2c1COCC2)c1cccnc1C(F)(F)F [16dt, 3,4-Dihydro-1H-pyrrolo[2,1-c][1,4]oxazine-6,8-dicarboxylic acid 6-{[(R)-1-(4-fluoro-phenyl)-ethyl]-amide} 8-{[(R)-1-(2-trifluoromethyl-pyridin-3-yl)-propyl]-amide}]",1
22,"CC[C@@H](NC(=O)c1cc(C(=O)NC2CCCCC2)n2c1CCCC2)c1ccccc1 [16ml, 5,6,7,8-Tetrahydro-indolizine-1,3-dicarboxylic acid 3-cyclohexylamide 1-[((R)-1-phenyl-propyl)-amide]]",0.13
23,"CC[C@@H](NC(=O)c1cc(C(=O)N2CC[C@H](F)C2)n2c1COCC2)c1ccccc1 [16fn, 6-((S)-3-Fluoro-pyrrolidine-1-carbonyl)-3,4-dihydro-1H-pyrrolo[2,1-c][1,4]oxazine-8-carboxylic acid ((R)-1-phenyl-propyl)-amide]",0.16
24,"CC[C@@H](NC(=O)c1cc(C(=O)N2CCN(C)CC2c2ccccc2)n2c1COCC2)c1ccccc1 (stereo partly drawn) [16em, 6-(4-Methyl-2-phenyl-piperazine-1-carbonyl)-3,4-dihydro-1H-pyrrolo[2,1-c][1,4]oxazine-8-carboxylic acid ((R)-1-phenyl-propyl)-amide]",0.6
25,"CC[C@@H](NC(=O)c1cc(C(=O)NCc2nc3ccccc3o2)c2n1CCOC2)c1ccccc1 [16js, 3,4-Dihydro-1H-pyrrolo[2,1-c][1,4]oxazine-6,8-dicarboxylic acid 8-[(benzooxazol-2-ylmethyl)-amide] 6-[((R)-1-phenyl-propyl)-amide]]",0.54
26,"CC[C@@H](NC(=O)c1cc(C(=O)N2CCC[C@@H]2C)n2c1COCC2)c1c(F)cccc1F [16t, 6-((S)-2-Methyl-pyrrolidine-1-carbonyl)-3,4-dihydro-1H-pyrrolo[2,1-c][1,4]oxazine-8-carboxylic acid [(R)-1-(2,6-difluoro-phenyl)-propyl]-amide]",0.044
